Assay results as given in patent EP4427750A1, “TREATMENT OF LUNG ADENOCARCINOMA” (priority 2023, dated 2024).
Read-outs that look alike come from different tables or passages of the source.

Assays:
[1] = system: MCM6; assay: Western blot of MCM6 protein expression in A549 cells after drug treatment
[2] = system: A549 cell line; assay: LDH cytotoxicity assay; type: cell-based
Method: 30 minutes after LDH (Abcam Cat# ab65393) administration, optical density at a wavelength of 450 nm was measured using a microplate reader (Hidex plate reader) to quantify the relative LDH activity which was released into the media via the drug's cytotoxic effect.

[3] = system: A549 cell line; assay: cells; type: cell-based; settings: Homo sapiens
Method: A549 cells were obtained from ATCC and cultured with culture medium (D0819 DMEM 10% FBS 1% penicillin/streptomycin) at 37°C. Cell viability was measured using an MTT assay. MTT ((3-[4,5-dimethylthiazol-2-yl]-2,5-diphenyltetrazolium bromide) (1x), at 5 mg/ml) was added for 1 hour and formazan was dissolved with DMSO (dimethyl sulfoxide). Optical density at a wavelength of 570 nm was measured using a microplate reader (Hidex plate reader) to quantify the relative number of living cells. To determine treatment concentrations, cells were treated with serially diluted drugs until a concentration that reduced cell viability by around 50%. […] Cells were treated with the drugs at their designated concentrations for two days.

[4] = system: TTK; assay: Western blot of TTK protein expression in A549 cells after drug treatment; type: cell-based; settings: A549, 10µM
Method: PVDF membranes were blocked for 30 minutes with 5% skim milk and TBST (Tris Buffered Saline with 0.2% Tween 20) and then treated overnight on a shaker plate at 4°C with 0.5% skim milk with TBST and MCM6 (Abcam Cat# ab201683) and TTK (Abcam Cat# ab187520) primary antibodies diluted 1:20000 and for 30 minutes with TUBA1A (Abeam Cat# ab7291, RRID:AB_2241126) primary antibodies diluted 1:20000. The solution was then replaced with a new solution of 0.5% skim milk with TBST and anti-rabbit (Abeam Cat# ab6721, RRID:AB_955447) or anti-mouse (Abeam Cat# ab6789, RRID:AB_955439) secondary antibodies diluted 1:20000 for 30 minutes.

[5] = A549, 48 h, read-out: cell viability
[6] = A549, dose dependent MTT assay, read-out: concentration which could reduce the cell viability by 50%

Row | Structure (SMILES) | protein level of MCM6 ([1]; A549, 10µM) | necrotic cell death ([2]; A549, 10µM, lysis positive control 100%, untreated 0%) | viability at 10 µM [3, 5] | IC50 [3, 6] | effect on TTK protein level [4] | protein level of MCM6 ([1]; A549, 100nM) | cytotoxicity at 0.1 µM ([2]; Homo sapiens, A549, 48 h, read-out: necrotic cell death) | viability at 0.1 µM [3, 5] | necrotic cell death [2] | IC50 ([3]; A549, read-out: concentration which could reduce the cell viability by 50%)
1 | OCCCNc1cc(-c2ccnc(Nc3cccc(Cl)c3)n2)ccn1 [CGP-60474] | significantly reduced | did not induce necrotic cell death | 29.1% | 10 µM | showed an inhibitory effect on TTK |  |  |  |  | 
2 | O=C1c2c(O)ccc(O)c2C(=O)c2c(NCCNCCO)ccc(NCCNCCO)c21 [mitoxantrone] |  |  |  | 0.1 µM |  | significantly reduced | 3.45% | 52.2% |  | 
3 | COC[C@H]1OC(=O)c2coc3c2[C@@]1(C)C1=C(C3=O)[C@@H]2CCC(=O)[C@@]2(C)C[C@H]1OC(C)=O [wortmannin] |  |  | 62.3% |  |  |  |  |  | did not induce necrotic cell death | 10 µM
